From ChEMBL document CHEMBL3045503, “Mode of Action of Herbicides Affecting Carotenogenesis” (J Pestic Sci, 1996)
pIC50: −log10 of the molar value.

What was measured:
Pantoea ananatis [1] = experiment: Resistance factor, ratio of I50 for Pantoea ananatis NFZ20 phytoene desaturase mutant to I50 for wild-type Erwinia uredovora phytoene desaturase by cell-free assay
Pantoea ananatis [2] = experiment: Resistance factor, ratio of I50 for Pantoea ananatis NFZ42 phytoene desaturase mutant to I50 for wild-type Erwinia uredovora phytoene desaturase by cell-free assay
Pantoea ananatis [3] = experiment: Resistance factor, ratio of I50 for Pantoea ananatis NFZ42 phytoene desaturase mutant to I50 for wild-type Erwinia uredovora phytoene desaturase by cellular assay
Pantoea ananatis [4] = experiment: Resistance factor, ratio of I50 for Pantoea ananatis NFZ4 phytoene desaturase mutant to I50 for wild-type Erwinia uredovora phytoene desaturase by cellular assay
Pantoea ananatis [5] = experiment: Resistance factor, ratio of I50 for Pantoea ananatis NFZ20 phytoene desaturase mutant to I50 for wild-type Erwinia uredovora phytoene desaturase by cellular assay
Nicotiana tabacum [6] = experiment: Inhibition of colored carotenoid formation in transgenic Nicotiana tabacum (tobacco) ET4-208; format: functional, organism-based; details: read-out: I50
Nicotiana tabacum [7] = experiment: Inhibition of colored carotenoid formation in Nicotiana tabacum (tobacco); format: functional, organism-based; details: read-out: I50
Pantoea ananatis [8] = experiment: Resistance factor, ratio of I50 for Pantoea ananatis NFZ4 phytoene desaturase mutant to I50 for wild-type Erwinia uredovora phytoene desaturase by cell-free assay

Structure (SMILES) | Ratio (Pantoea ananatis [1]) | Ratio (Pantoea ananatis [2]) | Ratio (Pantoea ananatis [3]) | Ratio (Pantoea ananatis [4]) | Ratio (Pantoea ananatis [5]) | pIC50 (Nicotiana tabacum [6]) | pIC50 (Nicotiana tabacum [7]) | Ratio (Pantoea ananatis [8])
O=c1c(-c2ccccc2)c[nH]cc1-c1cccc(C(F)(F)F)c1 [FLURIDONE] | 8 | 1 | 0.5 | 4 | 8 | – | – | –
CCOC(=O)C1=C(c2ccccc2)OC(CC)C(C)C1=O (configuration not stated) | – | – | – | – | – | < 4.00 | 6.13 | –
CCC(COc1cccc(C(F)(F)F)c1)OC(=O)NCCc1ccccc1 (configuration not stated) | – | – | – | – | – | < 4.00 | 5.89 | –
Nc1nc[nH]n1 [AMITROLE] | – | – | – | – | – | 4.14 | 4.17 | –
CC1(C)CC(=O)C(C(=O)c2ccc(Cl)cc2[N+](=O)[O-])C(=O)C1 | – | – | – | – | – | 7.32 | 7.38 | –
CNC1=C(c2cccc(C(F)(F)F)c2)C(=O)C(c2ccccc2)O1 (configuration not stated) [FLURTAMONE] | – | – | – | – | – | < 4.00 | 7.33 | –
C=C(Cl)COc1cc(C)nc(NC(C)C)n1 | – | – | – | – | – | < 4.00 | 5.35 | –
O=C(Nc1ccc(F)cc1F)c1cccnc1Oc1cccc(C(F)(F)F)c1 [DIFLUFENICAN] | – | – | – | – | – | < 4.00 | 7.42 | –
CNc1cnn(-c2cccc(C(F)(F)F)c2)c(=O)c1Cl [NORFLURAZONE] | 12 | 23 | 40 | 24 | 20 | < 4.00 | 6.48 | 15
